Experimental data taken from patent US12144864B2, “Tubulysins and protein-tubulysin conjugates” (Regeneron Pharmaceuticals, Inc., priority 2018, dated 2024).
Like-named read-outs stand apart in the source and are kept apart here.

Key:
T47D cells = test: Cell-based killing assay of payloads (CellTiter-Glo), T47D cells; set-up: species or system human; details: 5-day incubation; for IC50: Homo sapiens, T47D, 120 h; for T47D % Kill: at maximum concentration tested
Protocol: (§1) To test the ability of the disclosed tubulysin payloads to kill human cell lines, an in vitro cytotoxicity assay was performed. In vitro cytotoxicity of the disclosed payloads, as well as reference compounds, were evaluated using the CellTiter-Glo Assay Kit (Promega, Cat #G7573), in which the quantity of ATP present is used to determine the number of viable cells in culture. For the assay, C4-2, HEK293, or T47D cells were seeded at 4000 cells/well on Nunclon white 96-well plates in complete growth medium (DME high glucose:Ham's F12 at 4:1, 10% FBS, 100 units/ml Penicillin, 100 ug/ml streptomycin, 53 ug/ml glutatmine, 10 ug/ml insulin, 220 ng/ml biotin, 12.5 pg/ml T3, 12.5 ug/ml Adenine, 4 ug/ml transferrin for C42 cells; DME high glucose, 10% FBS, 100 units/ml Penicillin, 100 ug/ml streptomycin, 53 ug/ml glutatmine for HEK293; RPMI, 10% FBS, 100 units/ml Penicillin, 100 ug/ml streptomycin, 53 ug/ml glutatmine, 10 ug/ml insulin, 10 mM HEPEs, 200 nM Sodium Pyruvate for T47D cells) and grown overnight at 37° C. in 5% CO2. For cell viability curves, 1:3 serially diluted payloads were added to the cells at final concentrations ranging from 100 nM to […], including a no treatment control group, and were then incubated for 5 days. After the 5-day incubation, cells were incubated at room temperature with 100 μL of CellTiter-Glo reagents for 10 minutes. Relative luminescence units (RLU) were determined on a Victor plate reader (PerkinElmer). The IC50 values were determined from a four-parameter logistic equation over a 10-point response curve (GraphPad Prism). All IC50 values are expressed in molar (M) concentration. The percent cell killing (% kill) at the maximum concentration tested was estimated from the following formula (100−% viable cells). Averages±standard deviation (SD) are included where replicate experiments were performed.

HCT15 cells = test: cells; type: cell-based, human; details: HCT15 cells; for HCT-15 + verapamil % Kill / HCT-15 % Kill: maximum % cell killing
Method in brief: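 Five-day exposure of 1000 HCT15 cells/well to threefold payload dilutions, run both plus and minus verapamil (5 ug/mL) in RPMI with 10% FBS. ATP luminescence (CellTiter-Glo) gives viability; four-parameter logistic fit of 10 points yields IC50, and 100 − % viable at highest dose gives % kill.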

C4-2 cells = test: Cell-based killing assay of payloads (CellTiter-Glo), C4-2 cells; set-up: species or system human; details: 5-day incubation; for IC50: Homo sapiens, C4-2, 120 h, average ± SD where replicates; for C4-2 % Kill: at maximum concentration tested (100 − % viable cells)
Method in brief: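 Viability readout is CellTiter-Glo luminescence after a 5-day exposure to 10-point, threefold-diluted payloads spanning 100 nM–[…], following overnight attachment of 4000 cells/well. Four-parameter logistic fit gives IC50 in M; % kill taken at highest concentration tested.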

HEK293 cells = test: Cell-based killing assay of payloads (CellTiter-Glo), HEK293 cells; set-up: species or system human; details: 5-day incubation; for IC50: Homo sapiens, HEK293, 120 h; for HEK293 % Kill: at maximum concentration tested
Protocol: as §1

[1] = with 5 ug/mL Verapamil, read-out: HCT-15 + verapamil IC50
[2] = Homo sapiens, HCT-15, without Verapamil, read-out: HCT-15 IC50

With `CCCCCCON(C(=O)[C@@H](NC(=O)[C@H]1CCCCN1C)[C@@H](C)CC)[C@H](C[C@@H](OC(=O)NCC)c1nc(C(=O)N[C@@H](Cc2ccc(O)cc2)C[C@H](C)C(=O)O)cs1)C(C)C` [VIb, (2S,4R)-5-(4-hydroxyphenyl)-4-(2-((6R,8R)-8-isopropyl-9-((2S,3S)-3-methyl-2-((R)-1-methylpiperidine-2-carboxamido)pentanoyl)-4-oxo-5,10-dioxa-3,9-diazahexadecan-6-yl)thiazole-4-carboxamido)-2-methylpentanoic acid] the IC50 (T47D cells) was 13.6 nM, the “T47D % Kill” value (T47D cells) was 76.2% and the “HCT-15 + verapamil % Kill” value (HCT15 cells; with 5 ug/mL Verapamil) was 97.8%. The IC50 (HCT15 cells; [1]) was 2.88 nM, the “HCT-15 % Kill” value (HCT15 cells; without Verapamil) was 54.7% and the IC50 (HCT15 cells; [2]) was over 50 nM. For the same compound, the IC50 (C4-2 cells) was 12 nM, the “C4-2 % Kill” value (C4-2 cells) was 96.5% and the IC50 (HEK293 cells) was 20.3 nM. The “HEK293 % Kill” value (HEK293 cells) was 75.4%.
For `CCCCCCON(C(=O)[C@@H](NC(=O)[C@H]1CCCCN1C)[C@@H](C)CC)[C@H](C[C@@H](OC(=O)NCCCC)c1nc(C(=O)N[C@@H](Cc2ccc(O)cc2)C[C@H](C)C(=O)O)cs1)C(C)C` [VId, (2S,4R)-5-(4-Hydroxyphenyl)-4-(2-((8R,10R)-10-isopropyl-11-((2S,3S)-3-methyl-2-((R)-1-methylpiperidine-2-carboxamido)pentanoyl)-6-oxo-7,12-dioxa-5,11-diazaoctadecan-8-yl)thiazole-4-carboxamido)-2-methylpentanoic acid], the IC50 (T47D cells) was 2.51 nM, the “T47D % Kill” value (T47D cells) was 68.4% and the “HCT-15 + verapamil % Kill” value (HCT15 cells; with 5 ug/mL Verapamil) was 99%. For the same compound, the IC50 (HCT15 cells; [1]) was 0.482 nM, the “HCT-15 % Kill” value (HCT15 cells; without Verapamil) was 78.7% and the IC50 (HCT15 cells; [2]) was over 30 nM. The IC50 (C4-2 cells) was 2.4 nM, the “C4-2 % Kill” value (C4-2 cells) was 95.5 ± 2.6% and the IC50 (HEK293 cells) was 5.26 nM. The “HEK293 % Kill” value (HEK293 cells) was 78.5%.
With `CCCCCCNC(=O)O[C@H](C[C@H](C(C)C)N(OCCCCCC)C(=O)[C@@H](NC(=O)[C@H]1CCCCN1C)[C@@H](C)CC)c1nc(C(=O)N[C@@H](Cc2ccc(O)cc2)C[C@H](C)C(=O)O)cs1` [VIe, (2S,4R)-5-(4-Hydroxyphenyl)-4-(2-((9R,11R)-9-isopropyl-8-((2S,3S)-3-methyl-2-((R)-1-methylpiperidine-2-carboxamido)pentanoyl)-13-oxo-7,12-dioxa-8,14-diazaicosan-11-yl)thiazole-4-carboxamido)-2-methylpentanoic acid] the IC50 (T47D cells) was 2.27 nM, the “T47D % Kill” value (T47D cells) was 72.7% and the “HCT-15 + verapamil % Kill” value (HCT15 cells; with 5 ug/mL Verapamil) was 98.8%. The IC50 (HCT15 cells; [1]) was 0.295 nM, the “HCT-15 % Kill” value (HCT15 cells; without Verapamil) was 36.6% and the IC50 (HCT15 cells; [2]) was over 100 nM. For the same compound, the IC50 (C4-2 cells) was 8.22 nM, the “C4-2 % Kill” value (C4-2 cells) was 94.4 ± 0.2% and the IC50 (HEK293 cells) was 4.77 nM. For the same compound, the “HEK293 % Kill” value (HEK293 cells) was 76.7%.
With `C#CCCCON(C(=O)[C@@H](NC(=O)[C@H]1CCCCN1C)[C@@H](C)CC)[C@H](C[C@@H](OC(=O)NCC)c1nc(C(=O)N[C@@H](Cc2ccc(N)cc2)CC(C)(C)C(=O)O)cs1)C(C)C` [VIf, (4S)-5-(4-Aminophenyl)-4-({2-[(1R,3R)-1-[(ethylcarbamoyl)oxy]-4-methyl-3-[(2S,3S)-3-methyl-2-{[(2R)-1-methylpiperidin-2-yl]formamido}-N-(pent-4-yn-1-yloxy)pentanamido]pentyl]-1,3-thiazol-4-yl}formamido)-2,2-dimethylpentanoic acid] the IC50 (T47D cells) was 0.302 nM, the “T47D % Kill” value (T47D cells) was 63.2% and the “HCT-15 + verapamil % Kill” value (HCT15 cells; with 5 ug/mL Verapamil) was 98.8%. For the same compound, the IC50 (HCT15 cells; [1]) was 0.0854 nM, the “HCT-15 % Kill” value (HCT15 cells; without Verapamil) was 99.1% and the IC50 (HCT15 cells; [2]) was 2.06 nM. For the same compound, the IC50 (C4-2 cells) was 0.312 nM, the “C4-2 % Kill” value (C4-2 cells) was 93.9% and the IC50 (HEK293 cells) was 0.383 nM. The “HEK293 % Kill” value (HEK293 cells) was 85.6%.
`C#CCCCON(C(=O)[C@@H](NC(=O)[C@H]1CCCCN1C)[C@@H](C)CC)[C@H](C[C@@H](OC(C)=O)c1nc(C(=O)N[C@@H](Cc2ccc(F)cc2)CC(C)(C)C(=O)O)cs1)C(C)C` [Vd, (4S)-4-({2-[(1R,3R)-1-(Acetyloxy)-4-methyl-3-[(2S,3S)-3-methyl-2-{[(2R)-1-methylpiperidin-2-yl]formamido}-N-(pent-4-yn-1-yloxy)pentanamido]pentyl]-1,3-thiazol-4-yl}formamido)-5-(4-fluorophenyl)-2,2-dimethylpentanoic acid] was tested, and the IC50 (T47D cells) was 0.444 nM, the “T47D % Kill” value (T47D cells) was 66% and the “HCT-15 + verapamil % Kill” value (HCT15 cells; with 5 ug/mL Verapamil) was 98.7%. For the same compound, the IC50 (HCT15 cells; [1]) was 0.352 nM, the “HCT-15 % Kill” value (HCT15 cells; without Verapamil) was 99.7% and the IC50 (HCT15 cells; [2]) was 1.93 nM. For the same compound, the IC50 (C4-2 cells) was 0.384 nM, the “C4-2 % Kill” value (C4-2 cells) was 91.3% and the IC50 (HEK293 cells) was 0.59 nM. For the same compound, the “HEK293 % Kill” value (HEK293 cells) was 86.3%.
For `C#CCCCON(C(=O)[C@@H](NC(=O)[C@H]1CCCCN1C)[C@@H](C)CC)[C@H](C[C@@H](OC(C)=O)c1nc(C(=O)N[C@@H](Cc2ccc(F)cc2)C[C@H](C)C(=O)O)cs1)C(C)C` [Vf, (2S,4R)-4-({2-[(1R,3R)-1-(Acetyloxy)-4-methyl-3-[(2S,3S)-3-methyl-2-{[(2R)-1-methylpiperidin-2-yl]formamido}-N-(pent-4-yn-1-yloxy)pentanamido]pentyl]-1,3-thiazol-4-yl}formamido)-5-(4-fluorophenyl)-2-methylpentanoic acid], the IC50 (T47D cells) was 0.396 nM, the “T47D % Kill” value (T47D cells) was 68% and the “HCT-15 + verapamil % Kill” value (HCT15 cells; with 5 ug/mL Verapamil) was 98%. For the same compound, the IC50 (HCT15 cells; [1]) was 0.375 nM, the “HCT-15 % Kill” value (HCT15 cells; without Verapamil) was 96.5% and the IC50 (HCT15 cells; [2]) was 3.36 nM. For the same compound, the IC50 (C4-2 cells) was 0.9 nM, the “C4-2 % Kill” value (C4-2 cells) was 90% and the IC50 (HEK293 cells) was 0.666 nM. The “HEK293 % Kill” value (HEK293 cells) was 83.8%.
In the case of `CC[C@H](C)[C@H](NC(=O)[C@H]1CCCCN1C)C(=O)N(OCCCOCc1ccc(N)cc1)[C@H](C[C@@H](OC(C)=O)c1nc(C(=O)N[C@@H](Cc2ccc(O)cc2)C[C@H](C)C(=O)O)cs1)C(C)C` [Vj, (2S,4R)-4-(2-((8R,10R)-1-(4-Aminophenyl)-8-isopropyl-7-((2S,3S)-3-methyl-2-((R)-1-methylpiperidine-2-carboxamido)pentanoyl)-12-oxo-2,6,11-trioxa-7-azatridecan-10-yl)thiazole-4-carboxamido)-5-(4-hydroxyphenyl)-2-methylpentanoic acid], the IC50 (T47D cells) is reported as over 100 nM, the “T47D % Kill” value (T47D cells) is reported as 14.6% and the “HCT-15 + verapamil % Kill” value (HCT15 cells; with 5 ug/mL Verapamil) is reported as 77.4%. For the same compound, the IC50 (HCT15 cells; [1]) was 39.2 nM, the “HCT-15 % Kill” value (HCT15 cells; without Verapamil) was −3.8% and the IC50 (HCT15 cells; [2]) was over 100 nM. The IC50 (C4-2 cells) was 53.1 nM, the “C4-2 % Kill” value (C4-2 cells) was 68.5 ± 39.2% and the IC50 (HEK293 cells) was over 100 nM. The “HEK293 % Kill” value (HEK293 cells) was 4.7%.
